# Experimental data from patent publication US20230293420A1, “COSMETIC OR DERMOPHARMACEUTICAL COMPOSITION, PEPTIDE AND USE IN THE REDUCTION AND ELIMINATION OF WRINKLES AND EXPRESSION LINES” (NANOCEUTICALS LTDA, priority 2022, published 2023).
# Where a SMILES comes first, the peptide text is derived from it.
# How the values were obtained:
# myoblast cells = type: cell-based
# [1] = Appearance of solubilized sample in cell culture medium; type: physicochemical; conditions: 1 mg/mL in cell culture medium
# [2] = tested on: Balb/c 3T3 clone 31 cells; assay: In vitro study of neutral red cytotoxicity; type: cell-based; conditions: 24 hours incubation
# Protocol: Evaluate the in vitro cytotoxic potential of the Giovian peptide (SEQ ID No. 1) in culture of Balb/c 3T3 clone 31 cells.
# In this study, Balb.c 3T3 clone 31 cells were used, obtained from the supplier Banco de Células do Rio de Janeiro, batch 001242, maintained in cultivation with DMEM (Dulbecco's Modified Eagle's Medium) with the addition of supplements, in an oven at 37° C. and 5% of CO2, and were manipulated inside the laminar flow hood. In passage 04 after thawing, the cells were distributed in 96-well plates maintained in culture under the same conditions described.
# The solutions containing the control, positive control and sample groups were applied to the cell culture, 100 μL per well in quadruplicate for each group, followed by incubation in an oven at 37° C. and 5% CO2 for 24 hours. After washing, cell viability was analyzed with the neutral red indicator, 100 μL per well.
# The results were evaluated using Microsoft Excel software. The control group was normalized to 100% and the percentage of cell viability in the sample and in the positive control was calculated in relation to the control. Samples are considered cytotoxic when they have 30% or more reduction in cell viability.
smiles,measurement,setting,value
CC[C@H](C)[C@H](NC(=O)[C@H](CC(C)C)NC(=O)[C@H](CCCCN)NC(=O)CNC(=O)[C@H](CC(C)C)NC(=O)[C@H](CCCCN)NC(=O)[C@H](CC(C)C)NC(=O)[C@H](Cc1c[nH]c2ccccc12)NC(=O)[C@H](Cc1ccccc1)NC(=O)[C@@H](NC(=O)[C@H](CCCCN)NC(=O)[C@H](CCCNC(=N)N)NC(=O)[C@H](Cc1ccccc1)NC(=O)[C@@H]1CCCN1C(=O)[C@@H](NC(=O)[C@H](Cc1ccccc1)NC(=O)CNC(=O)[C@@H]1CCCN1C(=O)[C@@H]1CCCN1C(=O)[C@@H](N)CCCNC(=N)N)[C@@H](C)O)[C@@H](C)CC)C(=O)N[C@@H](CC(=O)O)C(=O)N[C@@H](C)C(=O)N[C@@H](CC(C)C)C(N)=O [Giovian] (H-RPPGFTPFRKIFWLKLGKLIDAL-NH2),"cell relaxation (reduction of cell contractility, collagen disc volume)",myoblast cells,increase in cell relaxation
same,appearance of solubilized sample,[1],fully solubilized
same,concentrations at which the sample did not present cytotoxic effect (cytotoxic = 30% or more reduction in cell viability),[2],lower than 0.0375 mg/ml
